Test results taken from US7291642B2, “Bradykinin-B1 antagonists, process for their preparation and their use as medicaments” (Boehringer Ingelheim International GmbH, priority 2004, dated 2007).
Structures can show the parent of a compound that is named as a salt.

What follows are molecules tested against T1, hBK1 receptor (Homo sapiens, UniProt P46663) (assay: hBK1 receptor binding). Settings: membranes of CHO cells expressing the hBK1 receptor; radioligand 0.5 to 1.0 nM kallidin (DesArg10, Leu9), [3,4-prolyl-3,43H(N)]; 60 minutes, room temperature.
T1 construct: expressed in transfected cells; host or cells: CHO cells (membrane homogenate)
T1 sequence (P46663 1-353): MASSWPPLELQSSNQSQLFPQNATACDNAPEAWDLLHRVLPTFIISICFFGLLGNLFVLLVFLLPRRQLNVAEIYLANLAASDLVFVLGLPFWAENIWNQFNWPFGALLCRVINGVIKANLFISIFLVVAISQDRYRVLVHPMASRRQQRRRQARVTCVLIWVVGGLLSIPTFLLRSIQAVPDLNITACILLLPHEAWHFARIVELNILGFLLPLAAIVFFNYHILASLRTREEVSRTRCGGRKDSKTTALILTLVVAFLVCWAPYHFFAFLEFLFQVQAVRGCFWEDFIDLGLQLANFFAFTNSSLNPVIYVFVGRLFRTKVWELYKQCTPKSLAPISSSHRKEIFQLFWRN
Method: CHO cells expressing the hBK1 receptor are cultivated in Dulbecco's modified medium. The medium from confluent cultures is removed and the cells are washed with PBS buffer, scraped off and isolated by centrifugation. The cells are then homogenized in suspension and the homogenate is centrifuged and resuspended. The protein content is determined and the membrane preparation obtained in this manner is then frozen at −80° C.
After thawing, 200 μl of the homogenate (50 to 100 μg of proteins/assay) are incubated at room temperature with 0.5 to 1.0 nM of kallidin (DesArg10, Leu9), [3,4-prolyl-3,43H(N)] and increasing concentrations of the test substance in a total volume of 250 μl for 60 minutes. The incubation is terminated by rapid filtration through GF/B glass fibre filters which had been pretreated with polyethyleneimine (0.3%). The protein-bound radioactivity is measured in a TopCount NXT. Non-specific binding is defined as radioactivity bound in the presence of 1.0 μM of […]. The concentration/binding curve is analysed using a computer-assisted nonlinear curve fitting. The Ki which corresponds to the test substance is determined using the data obtained in this manner.

Ki [nM] | SMILES
62 | CC(C)N(CCCC(=O)N(C)CCc1ccc(C2=NCCN2)cc1)S(=O)(=O)c1cccc(Cl)c1Cl [A, 4-[(2,3-dichlorobenzenesulphonyl)isopropylamino]-N-{2-[4-(4,5-dihydro-1H-imidazol-2-yl)phenyl]ethyl}-N-methylbutyramide]
26 | Cc1cc(S(=O)(=O)N2CCCCC2CCC(=O)N(C)CCc2ccc(C3=NCCN3)cc2)c(C)cc1Cl (centres unmarked) [B, 3-[1-(4-chloro-2,5-dimethylbenzenesulphonyl)piperidin-2-yl]-N-{2-[4-(4,5-dihydro-1H-imidazol-2-yl)phenyl]ethyl}-N-methylpropionamide hydrochloride]
957 | CN(CCc1ccc(C2=NCCN2)cc1)C(=O)C1CCCN(S(=O)(=O)c2cccc(Cl)c2Cl)C1 (centres unmarked) [C, 1-[(2,3-dichlorobenzenesulphonyl)piperidin-3-yl]-N-({2-[4-(4,5-dihydro-1H-imidazol-2-yl)phenyl]ethyl}methyl)carboxamide]
1520 | CN(CCN1CCN(CCc2ccc(C3=NCCN3)cc2)C1=O)S(=O)(=O)c1cccc(Cl)c1Cl [E, 2,3-dichloro-N-[2-(3-{2-[4-(4,5-dihydro-1H-imidazol-2-yl)phenyl]ethyl}-2-oxoimidazolidin-1-yl)ethyl]-N-methylbenzenesulphonamide hydrochloride]
170 | Cc1cc(S(=O)(=O)N(C)CCNC(=O)CCc2ccc(C3=NCCN3)cc2)c(C)cc1Cl [D, N-{2-[(4-chloro-2,5-dimethylbenzenesulphonyl)methylamino]ethyl}-3-[4-(4,5-dihydro-1H-imidazol-2-yl)phenyl]propionamide]
